# Tested on: Transport facilitation protein genes
# Experiment: DNA chip mRNA expression in yeast, transport facilitation protein genes (Table 5)
# Format: cell-based, Saccharomyces cerevisiae S288C
# In short: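 S. cerevisiae S288C grown at 25° C. in YPD to log phase, then exposed 2 h to a toxicant at a growth-inhibiting, non-lethal concentration; untreated cells as control. Poly(A) mRNA reverse-transcribed with Cy3-dUTP or Cy5-dUTP, hybridized >12 h at 65° C. to whole-genome yeast DNA chip; value = fluorescence ratio treated/untreated.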
smiles,measurement,setting,value
"CCCCC[C@H](O)CC(=O)CCc1ccc(O)c(OC)c1 [(13), gingerol]",The level of expressed mRNA in the presence of chemical substance/The level of expressed mRNA in the absence of chemical substance,yeast gene YBL030C,0.5
same,The level of expressed mRNA in the presence of chemical substance/The level of expressed mRNA in the absence of chemical substance,yeast gene YBL099W,0.9
same,The level of expressed mRNA in the presence of chemical substance/The level of expressed mRNA in the absence of chemical substance,yeast gene YBR052C,2.1
same,The level of expressed mRNA in the presence of chemical substance/The level of expressed mRNA in the absence of chemical substance,yeast gene YBR068C,2.2
same,The level of expressed mRNA in the presence of chemical substance/The level of expressed mRNA in the absence of chemical substance,yeast gene YBR127C,0.9
same,The level of expressed mRNA in the presence of chemical substance/The level of expressed mRNA in the absence of chemical substance,yeast gene YBR132C,1.4
same,The level of expressed mRNA in the presence of chemical substance/The level of expressed mRNA in the absence of chemical substance,yeast gene YBR207W,2.2
same,The level of expressed mRNA in the presence of chemical substance/The level of expressed mRNA in the absence of chemical substance,yeast gene YBR291C,1.0
same,The level of expressed mRNA in the presence of chemical substance/The level of expressed mRNA in the absence of chemical substance,yeast gene YBR293W,3.0
same,The level of expressed mRNA in the presence of chemical substance/The level of expressed mRNA in the absence of chemical substance,yeast gene YBR294W,3.1
same,The level of expressed mRNA in the presence of chemical substance/The level of expressed mRNA in the absence of chemical substance,yeast gene YBR295W,1.8
same,The level of expressed mRNA in the presence of chemical substance/The level of expressed mRNA in the absence of chemical substance,yeast gene YBR298C,0.8
same,The level of expressed mRNA in the presence of chemical substance/The level of expressed mRNA in the absence of chemical substance,yeast gene YCL025C,0.5
same,The level of expressed mRNA in the presence of chemical substance/The level of expressed mRNA in the absence of chemical substance,yeast gene YCL038C,1.9
same,The level of expressed mRNA in the presence of chemical substance/The level of expressed mRNA in the absence of chemical substance,yeast gene YCL069W,0.8
same,The level of expressed mRNA in the presence of chemical substance/The level of expressed mRNA in the absence of chemical substance,yeast gene YCR024C-A,0.5
same,The level of expressed mRNA in the presence of chemical substance/The level of expressed mRNA in the absence of chemical substance,yeast gene YCR037C,1.3
same,The level of expressed mRNA in the presence of chemical substance/The level of expressed mRNA in the absence of chemical substance,yeast gene YCR098C,1.4
same,The level of expressed mRNA in the presence of chemical substance/The level of expressed mRNA in the absence of chemical substance,yeast gene YDL128W,1.6
same,The level of expressed mRNA in the presence of chemical substance/The level of expressed mRNA in the absence of chemical substance,yeast gene YDL198C,2.0
same,The level of expressed mRNA in the presence of chemical substance/The level of expressed mRNA in the absence of chemical substance,yeast gene YDL210W,1.2
same,The level of expressed mRNA in the presence of chemical substance/The level of expressed mRNA in the absence of chemical substance,yeast gene YDL245C,2.0
same,The level of expressed mRNA in the presence of chemical substance/The level of expressed mRNA in the absence of chemical substance,yeast gene YDR038C,2.0
same,The level of expressed mRNA in the presence of chemical substance/The level of expressed mRNA in the absence of chemical substance,yeast gene YDR039C,1.8
same,The level of expressed mRNA in the presence of chemical substance/The level of expressed mRNA in the absence of chemical substance,yeast gene YDR086C,0.7
same,The level of expressed mRNA in the presence of chemical substance/The level of expressed mRNA in the absence of chemical substance,yeast gene YDR270W,1.8
same,The level of expressed mRNA in the presence of chemical substance/The level of expressed mRNA in the absence of chemical substance,yeast gene YDR298C,1.2
same,The level of expressed mRNA in the presence of chemical substance/The level of expressed mRNA in the absence of chemical substance,yeast gene YDR342C,0.6
same,The level of expressed mRNA in the presence of chemical substance/The level of expressed mRNA in the absence of chemical substance,yeast gene YDR343C,0.8
same,The level of expressed mRNA in the presence of chemical substance/The level of expressed mRNA in the absence of chemical substance,yeast gene YDR345C,1.2
same,The level of expressed mRNA in the presence of chemical substance/The level of expressed mRNA in the absence of chemical substance,yeast gene YDR387C,1.3
same,The level of expressed mRNA in the presence of chemical substance/The level of expressed mRNA in the absence of chemical substance,yeast gene YEL027W,0.7
same,The level of expressed mRNA in the presence of chemical substance/The level of expressed mRNA in the absence of chemical substance,yeast gene YEL065W,0.8
same,The level of expressed mRNA in the presence of chemical substance/The level of expressed mRNA in the absence of chemical substance,yeast gene YER119C,1.6
same,The level of expressed mRNA in the presence of chemical substance/The level of expressed mRNA in the absence of chemical substance,yeast gene YFL011W,0.8
same,The level of expressed mRNA in the presence of chemical substance/The level of expressed mRNA in the absence of chemical substance,yeast gene YFL041W,1.8
same,The level of expressed mRNA in the presence of chemical substance/The level of expressed mRNA in the absence of chemical substance,yeast gene YFL050C,1.2
same,The level of expressed mRNA in the presence of chemical substance/The level of expressed mRNA in the absence of chemical substance,yeast gene YFL054C,2.3
same,The level of expressed mRNA in the presence of chemical substance/The level of expressed mRNA in the absence of chemical substance,yeast gene YFL055W,1.3
same,The level of expressed mRNA in the presence of chemical substance/The level of expressed mRNA in the absence of chemical substance,yeast gene YGL008C,1.9
same,The level of expressed mRNA in the presence of chemical substance/The level of expressed mRNA in the absence of chemical substance,yeast gene YGL104C,2.0
same,The level of expressed mRNA in the presence of chemical substance/The level of expressed mRNA in the absence of chemical substance,yeast gene YGL167C,1.5
same,The level of expressed mRNA in the presence of chemical substance/The level of expressed mRNA in the absence of chemical substance,yeast gene YGR055W,1.9
same,The level of expressed mRNA in the presence of chemical substance/The level of expressed mRNA in the absence of chemical substance,yeast gene YGR065C,0.8
same,The level of expressed mRNA in the presence of chemical substance/The level of expressed mRNA in the absence of chemical substance,yeast gene YGR082W,0.5
same,The level of expressed mRNA in the presence of chemical substance/The level of expressed mRNA in the absence of chemical substance,yeast gene YGR138C,0.6
same,The level of expressed mRNA in the presence of chemical substance/The level of expressed mRNA in the absence of chemical substance,yeast gene YGR191W,1.0
same,The level of expressed mRNA in the presence of chemical substance/The level of expressed mRNA in the absence of chemical substance,yeast gene YGR197C,2.4
same,The level of expressed mRNA in the presence of chemical substance/The level of expressed mRNA in the absence of chemical substance,yeast gene YGR224W,0.8
same,The level of expressed mRNA in the presence of chemical substance/The level of expressed mRNA in the absence of chemical substance,yeast gene YGR260W,0.5
